Laboratory results taken from US20260049084A1, “ENPP1 MODULATORS AND PRODUCTS AND USES THEREOF” (Gossamer Bio Services, Inc., priority 2022, published 2026).

Columns and labels:
[1] = molecular target: Recombinant human ENPP3 protein (Homo sapiens (Human), UniProt O14638); assay: ENPP3 cGAMP Biochemical Assay; details: 70.5 nM ENPP3, 120 μM 2′3′-cGAMP substrate, TR-FRET
Procedure, shortened: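 Compound was preincubated 30 min at room temperature with recombinant human ENPP3 (final 70.5 nM) in Tris pH 7.5 with Mg, Ca, Zn and TCEP. 2′3′-cGAMP (120 μM final) was then hydrolysed for 60 min at 25 °C. AMP/GMP product was detected by TR-FRET tracer-displacement immunoassay after 120 min.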

[2] = molecular target: carbonic anhydrase II enzyme (Homo sapiens (Human), UniProt P00918); assay: Carbonic Anhydrase 2 Enzymatic Assay; assay type: biochemical; details: enzyme from human erythrocyte, 500 μM 4-nitrophenyl acetate, absorbance 400 nm; read-out: CA II IC50
Procedure: Carbonic Anhydrase 2 Enzymatic Assay
(§1) Test compound and/or vehicle was preincubated with carbonic anhydrase II enzyme (15 μg/ml) isolated from human erythrocyte in reaction buffer (50 mM MOPS solution pH 7.5) for 15 minutes at 25° C. The reaction was initiated by addition of 500 μM 4-nitrophenyl acetate and incubated for 30 minutes. The plate was read on a spectrophotometer (Absorbance: 400 nm)

[3] = molecular target: Recombinant human ENPP1 protein (Homo sapiens (Human), UniProt P22413); assay: ENPP1 cGAMP Biochemical Assay; details: 0.5 nM ENPP1, 1000 nM 2′3′-cGAMP substrate, TR-FRET
Procedure, shortened: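 Recombinant human ENPP1 (final 0.5 nM) preincubated with compound 30 min at room temperature in 50 mM Tris pH 7.5, 1 mM TCEP, 2 mM MgCl2, 0.005% Tween20; 2′3′-cGAMP (1000 nM final) added, 60 min at 25 °C. AMP/GMP product detected by TR-FRET antibody/tracer competition (2 nM), 120 min.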

[4] = molecular target: carbonic anhydrase I enzyme (Homo sapiens (Human), UniProt P00915); assay: Carbonic Anhydrase 1 Enzymatic Assay; assay type: biochemical; details: enzyme from human erythrocyte, 500 μM 4-nitrophenyl acetate, absorbance 400 nm; read-out: CA I IC50
Procedure: Carbonic Anhydrase 1 Enzymatic Assay
as §1, with “I” for “II”

Sequence of carbonic anhydrase I enzyme (P00915 whole entry): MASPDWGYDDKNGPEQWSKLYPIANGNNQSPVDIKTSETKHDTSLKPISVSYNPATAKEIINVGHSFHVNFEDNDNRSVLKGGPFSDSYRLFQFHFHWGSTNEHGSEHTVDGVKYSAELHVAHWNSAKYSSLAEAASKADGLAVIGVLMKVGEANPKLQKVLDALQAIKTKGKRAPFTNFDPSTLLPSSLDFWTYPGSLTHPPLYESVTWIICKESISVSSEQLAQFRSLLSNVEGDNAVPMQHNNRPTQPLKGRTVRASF
Sequence of Recombinant human ENPP3 protein (O14638 whole entry): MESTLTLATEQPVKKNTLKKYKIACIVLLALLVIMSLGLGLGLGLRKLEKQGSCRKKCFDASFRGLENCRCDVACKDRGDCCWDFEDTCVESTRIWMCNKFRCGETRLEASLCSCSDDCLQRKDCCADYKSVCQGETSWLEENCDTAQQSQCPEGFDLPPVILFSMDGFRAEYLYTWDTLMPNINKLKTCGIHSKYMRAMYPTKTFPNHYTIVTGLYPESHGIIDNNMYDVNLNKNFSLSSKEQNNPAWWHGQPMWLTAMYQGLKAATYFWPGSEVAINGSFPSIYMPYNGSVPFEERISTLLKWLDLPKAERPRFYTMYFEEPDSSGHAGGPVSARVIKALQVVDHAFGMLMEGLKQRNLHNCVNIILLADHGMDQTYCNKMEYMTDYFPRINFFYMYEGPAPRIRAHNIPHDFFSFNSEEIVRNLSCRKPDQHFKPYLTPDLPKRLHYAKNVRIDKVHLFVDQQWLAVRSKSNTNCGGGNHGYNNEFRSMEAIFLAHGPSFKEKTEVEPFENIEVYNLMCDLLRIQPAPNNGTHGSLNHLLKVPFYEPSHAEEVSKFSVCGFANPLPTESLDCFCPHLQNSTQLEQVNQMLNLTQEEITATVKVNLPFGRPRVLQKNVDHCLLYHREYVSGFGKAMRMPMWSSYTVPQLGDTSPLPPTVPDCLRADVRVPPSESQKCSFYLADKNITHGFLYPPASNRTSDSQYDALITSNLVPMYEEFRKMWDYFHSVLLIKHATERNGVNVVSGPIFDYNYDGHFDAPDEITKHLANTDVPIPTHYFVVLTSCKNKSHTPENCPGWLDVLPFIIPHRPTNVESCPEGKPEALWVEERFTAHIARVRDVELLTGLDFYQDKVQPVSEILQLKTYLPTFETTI
Sequence of Recombinant human ENPP1 protein (P22413 whole entry): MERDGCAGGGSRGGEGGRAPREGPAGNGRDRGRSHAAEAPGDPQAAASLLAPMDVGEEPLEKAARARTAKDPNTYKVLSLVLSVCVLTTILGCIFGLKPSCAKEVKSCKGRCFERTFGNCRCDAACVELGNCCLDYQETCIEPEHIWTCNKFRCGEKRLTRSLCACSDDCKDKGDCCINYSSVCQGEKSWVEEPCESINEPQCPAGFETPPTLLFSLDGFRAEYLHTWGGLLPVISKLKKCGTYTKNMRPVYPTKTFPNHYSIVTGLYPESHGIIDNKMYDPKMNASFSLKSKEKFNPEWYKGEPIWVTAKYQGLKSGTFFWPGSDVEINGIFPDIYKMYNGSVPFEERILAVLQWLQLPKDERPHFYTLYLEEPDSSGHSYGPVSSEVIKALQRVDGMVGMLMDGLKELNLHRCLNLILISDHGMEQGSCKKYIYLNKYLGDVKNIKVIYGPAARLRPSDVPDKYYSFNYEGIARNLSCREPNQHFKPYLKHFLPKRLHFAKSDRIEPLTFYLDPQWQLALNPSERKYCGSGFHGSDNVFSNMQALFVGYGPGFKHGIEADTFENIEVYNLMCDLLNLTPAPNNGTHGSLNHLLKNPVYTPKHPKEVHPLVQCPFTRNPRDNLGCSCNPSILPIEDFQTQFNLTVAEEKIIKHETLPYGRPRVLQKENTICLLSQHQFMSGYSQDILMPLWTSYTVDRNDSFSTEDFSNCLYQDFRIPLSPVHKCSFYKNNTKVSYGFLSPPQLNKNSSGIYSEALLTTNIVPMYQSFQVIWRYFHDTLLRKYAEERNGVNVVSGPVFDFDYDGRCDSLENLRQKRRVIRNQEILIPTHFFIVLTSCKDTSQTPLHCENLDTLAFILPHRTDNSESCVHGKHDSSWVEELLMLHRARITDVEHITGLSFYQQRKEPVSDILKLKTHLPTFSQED

Structure (SMILES)	IC50 [1]	IC50 [2]	IC50 [3]	IC50 [4]
C#CCn1nc(Cl)c2c(NCc3ccc([S@@](=N)(=O)NC#N)cc3)ccnc21 [Compound 12K, (S)-4-(((3-chloro-1-(prop-2-yn-1-yl)-1H-pyrazolo[3,4-b]pyridin-4-yl)amino)methyl)-N-cyanobenzenesulfonimidamide]	< 10 nM	100 to 1000 nM	< 10 nM	100 to 1000 nM
C#CCn1nc(Cl)c2c(NCc3ccc([S@](=N)(=O)NC#N)cc3)ccnc21 [Compound 12J, (R)-4-(((3-chloro-1-(prop-2-yn-1-yl)-1H-pyrazolo[3,4-b]pyridin-4-yl)amino)methyl)-N-cyanobenzenesulfonimidamide]	< 10 nM	≥ 1000 nM	< 10 nM	100 to 1000 nM
N=S(N)(=O)c1ccc(CNc2ccnc3[nH]nc(-c4ccccc4)c23)cc1 (stereo not shown) [Compound 1B, 4-(((3-phenyl-1H-pyrazolo[3,4-b]pyridin-4-yl)amino)methyl)benzenesulfonimidamide]	10 to 100 nM	100 to 1000 nM	10 to 100 nM	100 to 1000 nM
N#CCn1nc(Cl)c2c(NCC3CCN([S@@](N)(=O)=NC#N)CC3)ccnc21 [Compound 15E, (S)-4-(((3-chloro-1-(cyanomethyl)-1H-pyrazolo[3,4-b]pyridine-4-yl)amino)methyl)-N′-cyanopiperidine-1-sulfonimidamide]	< 10 nM	≥ 1000 nM	< 10 nM	100 to 1000 nM
CCn1ncc2c(NCC3CCN(S(=N)(N)=O)CC3)ccnc21 (stereo not shown) [Compound 1A, 4-(((1-ethyl-1H-pyrazolo[3,4-b]pyridin-4-yl)amino)methyl)piperidine-1-sulfonimidamide]	100 to 1000 nM	≥ 1000 nM	10 to 100 nM	100 to 1000 nM
C#CCn1nc(Cl)c2c(NCc3ccc(S(N)(=O)=NC#N)cc3)ccnc21 (stereo not shown) [Compound 12I, 4-(((3-chloro-1-(prop-2-yn-1-yl)-1H-pyrazolo[3,4-b]pyridin-4-yl)amino)methyl)-N′-cyanobenzenesulfonimidamide]	< 10 nM	≥ 1000 nM	< 10 nM	100 to 1000 nM
CN=[S@@](N)(=O)N1CCC(CNc2ccnc3c2c(Cl)nn3CC#N)CC1 [Compound 15H, (R)-4-(((3-chloro-1-(cyanomethyl)-1H-pyrazolo[3,4-b]pyridin-4-yl)amino)methyl)-N′-methylpiperidine-1-sulfonimidamide]	100 to 1000 nM	≥ 1000 nM	< 10 nM	≥ 1000 nM
C#CCn1nc(Cl)c2c(NCC3CCN(S(N)(=O)=NC)CC3)ccnc21 (stereo not shown) [Compound 15D, 4-(((3-chloro-1-(prop-2-yn-1-yl)-1H-pyrazolo[3,4-b]pyridine-4-yl)amino)methyl)-N′-methylpiperidine-1-sulfonimidamide]	10 to 100 nM	≥ 1000 nM	< 10 nM	≥ 1000 nM
N#CCn1nc(Cl)c2c(NCc3ccc(S(N)(=O)=NC#N)cc3)ccnc21 (stereo not shown) [Compound 12H, 4-(((3-chloro-1-(cyanomethyl)-1H-pyrazolo[3,4-b]pyridin-4-yl)amino)methyl)-N′-cyanobenzenesulfonimidamide]	< 10 nM	≥ 1000 nM	< 10 nM	100 to 1000 nM
N#CCn1nc(Cl)c2c(NCC3CCN([S@](N)(=O)=NC#N)CC3)ccnc21 [Compound 15F, (R)-4-(((3-chloro-1-(cyanomethyl)-1H-pyrazolo[3,4-b]pyridin-4-yl)amino)methyl)-N′-cyanopiperidine-1-sulfonimidamide]	< 10 nM	100 to 1000 nM	< 10 nM	100 to 1000 nM
